# Test system: A549 cells
# Assay: A549 microarray comparing macrolides with arachidonic acid pathway inhibitors, with IL-1β stimulation (Appendix C, Tables 6-9), and correlation analysis
# Type: cell-based
# Conditions: for Total # Differential Genes (95% confidence): A549, IL1 vs IL1 + drug, threshold 1.3, macrolides 50 μM (FMA 10 μM), triacsin C 15 μM, indomethacin and dexamethasone 100 nM
# Description: One inhibitor, triacsin C, acts on AA biosynthesis by inhibiting arachidonyl CoA synthetases, blocking the incorporation of free AA into phospholipids. Triacsin C is reasonably specific for AA compared to other fatty acids. However, triacsin C structurally resembles AA so it also may interfere with other steps in the AA pathway. Indomethacin is an inhibitor of COX1 and COX2 enzyme activities and therefore specifically blocks metabolism of AA into prostaglandins. […] It inhibits transcription of PLA2, and transcriptionally and post-transcriptionally regulates COX1 and COX2 activities. Dexamethasone has additional effects unrelated to AA through binding with the glucocorticoid receptor to glucocortcoid response elements.
# A549 cells were pre-incubated overnight (17 hours) with macrolides (10 μM FMA-9045, 50 μM clarithromycin, 50 μM roxithromycin, 50 μM josamycin) and 15 μM triacsin C, and pre-incubated 2 hours with 100 nM indomethacin and 100 nM dexamethasone. All cells then were stimulated for 4 hours with IL-1β, because the activation of PLA2 and downstream signaling events generally requires an inflammatory stimulus. The various treatment conditions are shown below in Table 4. Following macrolide and inhibitor pre-treatment and IL-1 stimulation, the cells were lysed, total RNA was collected, and the poly-A+ mRNA fraction was purified. The resulting microarray data (Appendix C) were analyzed using the methods described in the Examples above.
# The tables in Appendix C represent the effects of the arachidonic acid pathway inhibitors (“AA pathway inhibitors”) and the effects of the macrolides (“IL1+macrolide effects”). […] In both tables in Appendix C, the genes that meet this criterion (≧1.3 min fold change) are indicated in bold.
# Quantitative analysis was done to determine how well the responses to the different AA pathway inhibitors correlated. The correlation values were assigned a p-value to provide statistical confidence to the correlation value. Correlation between experiments, across all spots showing good detection, was assessed by cosine vector angle to generate the data shown in Tables 7-9. A correlation coefficient close to one indicates strong correlation, whereas a value near zero indicates no correlation. P-values for each correlation coefficient were estimated based on a Fisher permutation test. In this test, each spot's expression ratios were randomly re-ordered across experiments and the degree of correlation between experiments was then reassessed. This was done repeatedly.
# [1] = A549 cells, +IL1b +/- inhibitor
compound,measurement,setting,value
CCC/C=C/C/C=C/C=C/C=N/NN=O [triacsin C],Total # Differential Genes (95% confidence),,228
same,FADS1 expression,"A549 cells, microarray",induced
C[C@@H]1C[C@H]2[C@@H]3CCC4=CC(=O)C=C[C@]4(C)[C@@]3(F)[C@@H](O)C[C@]2(C)[C@@]1(O)C(=O)CO [Dexa],"wtd means, SpotID 46796 STC1 (stanniocalcin 1)",[1],1.41
same,"wtd means, SpotID 46950 SERPINA3 (serine (or cysteine) proteinase inhibitor, clade A, member 3)",[1],1.39
same,"wtd means, SpotID 46985 RIPK2 (RIP2, RICK; receptor-interacting serine-threonine kinase 2)",[1],1.83
same,"wtd means, SpotID 47155 TNFAIP6 (tumor necrosis factor, alpha-induced protein 6)",[1],1.27
same,"wtd means, SpotID 47166 SERPINA6 (serine (or cysteine) proteinase inhibitor, clade A, member 6)",[1],1.33
same,"wtd means, SpotID 47444 TKT (transketolase (Wernicke-Korsakoff syndrome))",[1],0.83
same,"wtd means, SpotID 47569 STAT3 (signal transducer and activator of transcription 3)",[1],1.42
same,"wtd means, SpotID 47698 PTPRJ (protein tyrosine phosphatase, receptor type, J)",[1],1.38
same,"wtd means, SpotID 47987 THBS1 (thrombospondin 1)",[1],0.66
same,"wtd means, SpotID 48234 PTPRZ1 (PTP zeta; protein tyrosine phosphatase, receptor-type, Z polypeptide 1)",[1],1.00
same,"wtd means, SpotID 48239 TLN1 (talin 1)",[1],1.53
same,"wtd means, SpotID 48288 TRAF5 (TNF receptor-associated factor 5)",[1],1.42
same,"wtd means, SpotID 48359 RIPK1 (receptor (TNFRSF)-interacting serine-threonine kinase 1)",[1],1.61
same,"wtd means, SpotID 48392 RIPK1 (receptor (TNFRSF)-interacting serine-threonine kinase 1)",[1],1.62
same,"wtd means, SpotID 48395 TNFRSF7 (CD27; tumor necrosis factor receptor superfamily, member 7)",[1],1.53
same,"wtd means, SpotID 48485 UCP1 (uncoupling protein 1 (mitochondrial, proton carrier))",[1],1.00
same,"wtd means, SpotID 48500 RPL13A (ribosomal protein L13a)",[1],1.65
same,"wtd means, SpotID 48603 TEAD4 (TEA domain family member 4)",[1],1.67
same,"wtd means, SpotID 49330 TNFRSF7 (CD27; tumor necrosis factor receptor superfamily, member 7)",[1],1.76
same,"wtd means, SpotID 49899 WWOX (WW domain containing oxidoreductase)",[1],0.76
same,"wtd means, SpotID 49901 TROAP (trophinin associated protein (tastin))",[1],0.84
same,"wtd means, SpotID 50379 TNFRSF6 (FAS; tumor necrosis factor receptor superfamily, member 6)",[1],1.40
same,"wtd means, SpotID 50428 RPLP0 (ribosomal protein, large, P0)",[1],0.73
same,"wtd means, SpotID 50491 TNFRSF6B (DcR3; tumor necrosis factor receptor superfamily, member 6b, decoy)",[1],1.36
C[C@@H]1C[C@H]2[C@@H]3CCC4=CC(=O)C=C[C@]4(C)[C@@]3(F)[C@@H](O)C[C@]2(C)[C@@]1(O)C(=O)CO [dexamethasone],Total # Differential Genes (95% confidence),,341
O=C(O)Cc1cc(I)c(Oc2ccc(O)c(I)c2)c(I)c1 [Triac],"min fold change, SpotID 46796 STC1 (stanniocalcin 1)",[1],1.00
same,"min fold change, SpotID 46950 SERPINA3 (serine (or cysteine) proteinase inhibitor, clade A, member 3)",[1],1.00
same,"min fold change, SpotID 46985 RIPK2 (RIP2, RICK; receptor-interacting serine-threonine kinase 2)",[1],1.43
same,"min fold change, SpotID 47155 TNFAIP6 (tumor necrosis factor, alpha-induced protein 6)",[1],1.02
same,"min fold change, SpotID 47166 SERPINA6 (serine (or cysteine) proteinase inhibitor, clade A, member 6)",[1],1.36
same,"min fold change, SpotID 47193 STAT3 (signal transducer and activator of transcription 3)",[1],1.32
same,"min fold change, SpotID 47332 SERPINB3 (serine (or cysteine) proteinase inhibitor, clade B (ovalbumin), member 3)",[1],1.06
same,"min fold change, SpotID 47444 TKT (transketolase (Wernicke-Korsakoff syndrome))",[1],1.16
same,"min fold change, SpotID 47569 STAT3 (signal transducer and activator of transcription 3)",[1],1.19
same,"min fold change, SpotID 47697 TNFRSF6B (DcR3; tumor necrosis factor receptor superfamily, member 6b, decoy)",[1],1.11
same,"min fold change, SpotID 47698 PTPRJ (protein tyrosine phosphatase, receptor type, J)",[1],1.11
same,"min fold change, SpotID 47987 THBS1 (thrombospondin 1)",[1],1.00
same,"min fold change, SpotID 48050 RPS6KA2 (ribosomal protein S6 kinase, 90 kD, polypeptide 2)",[1],1.12
same,"min fold change, SpotID 48234 PTPRZ1 (PTP zeta; protein tyrosine phosphatase, receptor-type, Z polypeptide 1)",[1],1.00
same,"min fold change, SpotID 48239 TLN1 (talin 1)",[1],1.34
same,"min fold change, SpotID 48288 TRAF5 (TNF receptor-associated factor 5)",[1],1.34
same,"min fold change, SpotID 48359 RIPK1 (receptor (TNFRSF)-interacting serine-threonine kinase 1)",[1],1.00
same,"min fold change, SpotID 48392 RIPK1 (receptor (TNFRSF)-interacting serine-threonine kinase 1)",[1],1.00
same,"min fold change, SpotID 48395 TNFRSF7 (CD27; tumor necrosis factor receptor superfamily, member 7)",[1],1.09
same,"min fold change, SpotID 48485 UCP1 (uncoupling protein 1 (mitochondrial, proton carrier))",[1],1.15
same,"min fold change, SpotID 48500 RPL13A (ribosomal protein L13a)",[1],1.25
same,"min fold change, SpotID 48594 RPS6KA2 (ribosomal protein S6 kinase, 90 kD, polypeptide 2)",[1],1.00
same,"min fold change, SpotID 48603 TEAD4 (TEA domain family member 4)",[1],1.38
same,"min fold change, SpotID 49330 TNFRSF7 (CD27; tumor necrosis factor receptor superfamily, member 7)",[1],1.51
same,"min fold change, SpotID 49899 WWOX (WW domain containing oxidoreductase)",[1],1.51
same,"min fold change, SpotID 49901 TROAP (trophinin associated protein (tastin))",[1],1.01
same,"min fold change, SpotID 50379 TNFRSF6 (FAS; tumor necrosis factor receptor superfamily, member 6)",[1],1.04
same,"min fold change, SpotID 50428 RPLP0 (ribosomal protein, large, P0)",[1],1.00
same,"min fold change, SpotID 50491 TNFRSF6B (DcR3; tumor necrosis factor receptor superfamily, member 6b, decoy)",[1],1.36
same,"wtd means, SpotID 46796 STC1 (stanniocalcin 1)",[1],1.05
same,"wtd means, SpotID 46950 SERPINA3 (serine (or cysteine) proteinase inhibitor, clade A, member 3)",[1],1.06
same,"wtd means, SpotID 46985 RIPK2 (RIP2, RICK; receptor-interacting serine-threonine kinase 2)",[1],1.70
same,"wtd means, SpotID 47155 TNFAIP6 (tumor necrosis factor, alpha-induced protein 6)",[1],1.08
same,"wtd means, SpotID 47166 SERPINA6 (serine (or cysteine) proteinase inhibitor, clade A, member 6)",[1],1.48
same,"wtd means, SpotID 47193 STAT3 (signal transducer and activator of transcription 3)",[1],1.47
same,"wtd means, SpotID 47332 SERPINB3 (serine (or cysteine) proteinase inhibitor, clade B (ovalbumin), member 3)",[1],1.22
same,"wtd means, SpotID 47444 TKT (transketolase (Wernicke-Korsakoff syndrome))",[1],0.76
same,"wtd means, SpotID 47569 STAT3 (signal transducer and activator of transcription 3)",[1],1.34
same,"wtd means, SpotID 47697 TNFRSF6B (DcR3; tumor necrosis factor receptor superfamily, member 6b, decoy)",[1],1.24
same,"wtd means, SpotID 47698 PTPRJ (protein tyrosine phosphatase, receptor type, J)",[1],1.17
same,"wtd means, SpotID 47987 THBS1 (thrombospondin 1)",[1],0.87
same,"wtd means, SpotID 48234 PTPRZ1 (PTP zeta; protein tyrosine phosphatase, receptor-type, Z polypeptide 1)",[1],1.00
same,"wtd means, SpotID 48239 TLN1 (talin 1)",[1],1.41
same,"wtd means, SpotID 48288 TRAF5 (TNF receptor-associated factor 5)",[1],1.60
same,"wtd means, SpotID 48359 RIPK1 (receptor (TNFRSF)-interacting serine-threonine kinase 1)",[1],1.27
same,"wtd means, SpotID 48392 RIPK1 (receptor (TNFRSF)-interacting serine-threonine kinase 1)",[1],1.08
same,"wtd means, SpotID 48395 TNFRSF7 (CD27; tumor necrosis factor receptor superfamily, member 7)",[1],1.50
same,"wtd means, SpotID 48485 UCP1 (uncoupling protein 1 (mitochondrial, proton carrier))",[1],1.59
same,"wtd means, SpotID 48500 RPL13A (ribosomal protein L13a)",[1],1.37
same,"wtd means, SpotID 48603 TEAD4 (TEA domain family member 4)",[1],1.65
same,"wtd means, SpotID 49330 TNFRSF7 (CD27; tumor necrosis factor receptor superfamily, member 7)",[1],1.73
same,"wtd means, SpotID 49899 WWOX (WW domain containing oxidoreductase)",[1],1.62
same,"wtd means, SpotID 49901 TROAP (trophinin associated protein (tastin))",[1],0.90
same,"wtd means, SpotID 50379 TNFRSF6 (FAS; tumor necrosis factor receptor superfamily, member 6)",[1],1.41
same,"wtd means, SpotID 50428 RPLP0 (ribosomal protein, large, P0)",[1],0.84
same,"wtd means, SpotID 50491 TNFRSF6B (DcR3; tumor necrosis factor receptor superfamily, member 6b, decoy)",[1],1.56
